Measured values from article PMC11761228, “Cinnamic Acid Compounds (p-Coumaric, Ferulic, and p-Methoxycinnamic Acid) as Effective Antibacterial Agents Against Colistin-Resistant Acinetobacter baumannii” (Antibiotics, 2025).
Values after ≈ are worked out from the molar mass of the structure shown.

How the values were obtained:
COLR-Ab isolates [1] = experiment: BD Phoenix100 automated antibiotic susceptibility testing; assay type: cell-based, Acinetobacter baumannii; design: key to Susceptibility category: Resistant; Intermediate; Susceptible; conditions: for MIC: Acinetobacter baumannii; for Susceptibility category: CLSI criteria
Description: Five COLR-Ab strains isolated from various clinical specimens were obtained between 2016 and 2017 from the Microbiology Department of the Central Laboratory of Akdeniz University Hospital, Antalya, Turkey. All isolates were isolated from tracheal samples obtained from patients hospitalized in the intensive care unit. The stock solutions of A. baumannii strains were cultivated in blood agar (Becton Dickinson, Franklin Lakes, NJ, USA) at 35 ± 2 °C for 18–24 h. Identification of the colonies was confirmed using Matrix-Assisted Laser Desorption/Ionization Time-of-Flight (MALDI-TOF) mass spectroscopy (Bruker Daltonics, Bremen, Germany). […] The automated system was evaluated according to the criteria of the CLSI. […] E. coli NCTC 13846 COL was used as a quality control strain in broth dilution method to verify the MIC values. The isolates were stored at −80 °C until use and sub-cultured on blood agar for in vitro testing.

A. baumannii isolates = conditions: A. baumannii isolates, combination with COL; cited from earlier work
COLR-Ab isolates [2] = experiment: Colistin broth disk elution method; assay type: cell-based, Acinetobacter baumannii; design: key to Susceptibility category: Resistant; Intermediate; Susceptible
Description: (§1) Five COLR-Ab strains isolated from various clinical specimens were obtained between 2016 and 2017 from the Microbiology Department of the Central Laboratory of Akdeniz University Hospital, Antalya, Turkey. All isolates were isolated from tracheal samples obtained from patients hospitalized in the intensive care unit. The stock solutions of A. baumannii strains were cultivated in blood agar (Becton Dickinson, Franklin Lakes, NJ, USA) at 35 ± 2 °C for 18–24 h. Identification of the colonies was confirmed using Matrix-Assisted Laser Desorption/Ionization Time-of-Flight (MALDI-TOF) mass spectroscopy (Bruker Daltonics, Bremen, Germany). […] The automated system was evaluated according to the criteria of the CLSI. The colistin broth disk elution method was used to test COL sensitivity, and all five isolates selected for the study were resistant to COL. E. coli NCTC 13846 COL was used as a quality control strain in broth dilution method to verify the MIC values. The isolates were stored at −80 °C until use and sub-cultured on blood agar for in vitro testing.

[3] = tested on: biofilm formation of COLR-Ab isolates; experiment: Antibiofilm activity, microtiter plate-based crystal violet technique; assay type: cell-based, Acinetobacter baumannii; conditions: all COL doses except 1 μg/mL for COLR-Ab4; COLR-Ab1, 3, 4, 5
Description: Following the incubation period, the microtiter plates were gently washed three times with PBS. Subsequently, 200 µL of methanol (99%) was added to each well and left for 15 min. The methanol was then removed from the wells and the plate was left to dry for approximately 30 min, thus completing the fixation process. Then, 200 µL of 0.1% CV solution was added to each well and incubated for 20 min at room temperature. The plates were washed three times with PBS in order to remove the excess stain, and then 150 μL of 95% ethanol was added to the wells and incubated for 20 min. The optical density of the CV-stained biofilm was measured at a wavelength of 575 nm using a Thermo Labsystem Multiscan Spectrum microtiter plate reader (Thermolabsystem, Chantilly, VA, USA). Each experiment was conducted in triplicate.
In order to evaluate the antibiofilm activity of COL, p-CA, FA, and p-MCA, a 96-well microtiter plate-based CV test was carried out, with minor modifications to the methods previously described by Kırmusaoglu (2019) and Haney et al. (2021). Briefly, bacteria were inoculated into MHB medium containing 0.2% glucose and incubated at 37 °C for 16–20 h. The bacterial suspension, adjusted to 0.5 McFarland using the same medium, was prepared to a final concentration of 5 × 10^5 CFU/mL and inoculated into 96-well flat-bottom microtitre plates. […] Wells containing only medium were used as negative controls (MHB), and wells containing only medium and bacteria were used as growth controls. The plates were then incubated overnight at 35 ± 2 °C in a normal atmosphere. Following incubation, CV staining procedures were carried out in a similar manner to Section 4.4.
The antibiofilm index was calculated using the following formula:% Biofilm Mass = (100 × Sample OD575/Growth Control OD575)

[4] = tested on: Escherichia coli NCTC 13846; experiment: Broth microdilution MIC, quality control strain; assay type: cell-based; conditions: E. coli NCTC 13846 quality control strain
Description: as §1
The broth microdilution method, as recommended by the CLSI, was used to determine the MIC values of COL, p-CA, FA, and p-MCA [46]. […] The MIC values were calculated by comparing the growth densities in the antibiotic-containing wells to those in the control wells used in each test set. […]

COLR-Ab isolates [5] = experiment: Broth microdilution MIC determination (CLSI); assay type: cell-based, Acinetobacter baumannii
Description: The broth microdilution method, as recommended by the CLSI, was used to determine the MIC values of COL, p-CA, FA, and p-MCA [46]. The serial two-fold dilutions of antimicrobial agents were prepared using 96-well microplates with cation-adjusted Mueller-Hinton Broth (MHB) (CAMHB, Merck KGaA, Darmstadt, Germany). Firstly, an initial concentration of 8192 µg/mL was chosen to determine the MIC values of all compounds against COLR-Ab isolates. […] The bacterial suspension was adjusted to the 0.5 McFarland standard and added to each well (final bacterial concentration: 5 × 10^5 colony forming units [CFU]/mL). Additionally, the microdilution plates included controls for bacterial growth (CAMHB + bacteria) and medium sterility (CAMHB). Microdilution plates were incubated at 35 ± 2 °C for 18–24 h. The MIC values were calculated by comparing the growth densities in the antibiotic-containing wells to those in the control wells used in each test set. Each experiment was conducted in triplicate.

[6] = COLR-Ab1, BD Phoenix 100 system
[7] = COLR-Ab2, BD Phoenix 100 system
[8] = COLR-Ab3, BD Phoenix 100 system
[9] = COLR-Ab4, BD Phoenix 100 system
[10] = COLR-Ab5, BD Phoenix 100 system
[11] = COLR-Ab1, colistin broth disk elution
[12] = COLR-Ab2, colistin broth disk elution
[13] = COLR-Ab3, colistin broth disk elution
[14] = COLR-Ab4, colistin broth disk elution
[15] = COLR-Ab5, colistin broth disk elution

With `NCC[C@H](O)C(=O)N[C@@H]1C[C@H](N)[C@@H](O[C@H]2O[C@H](CN)[C@@H](O)[C@H](O)[C@H]2O)[C@H](O)[C@H]1O[C@H]1O[C@H](CO)[C@@H](O)[C@H](N)[C@H]1O` [AMK, Amikacin] as the compound, how does the MIC (COLR-Ab isolates [1]; [6]) read?
The MIC was ≤ 4 µg/mL.

And the MIC (COLR-Ab isolates [1]; [7])?
Its MIC is > 16 µg/mL.

What about the MIC (COLR-Ab isolates [1]; [8]) of the same compound?
The MIC was > 16 µg/mL.

And the MIC (COLR-Ab isolates [1]; [9])?
Its MIC is > 16 µg/mL.

And the MIC (COLR-Ab isolates [1]; [10])?
The MIC was > 16 µg/mL.

What about the Susceptibility category (COLR-Ab isolates [1]; [6]) of the same compound?
The Susceptibility category was “S”.

What about the Susceptibility category (COLR-Ab isolates [1]; [7]) of the same compound?
Its Susceptibility category is “R”.

And the Susceptibility category (COLR-Ab isolates [1]; [8])?
Its Susceptibility category is “R”.

And the Susceptibility category (COLR-Ab isolates [1]; [9])?
The Susceptibility category was “R”.

And the Susceptibility category (COLR-Ab isolates [1]; [10])?
Its Susceptibility category is “R”.

Which results are given for `CNC(C)C1CCC(N)C(OC2C(N)CC(N)C(OC3OCC(C)(O)C(NC)C3O)C2O)O1` (stereo not shown) [GEN, Gentamicin]?
MIC (COLR-Ab isolates [1]; [6]): ≤ 1 µg/mL; MIC (COLR-Ab isolates [1]; [7]): > 4 µg/mL; MIC (COLR-Ab isolates [1]; [8]): > 4 µg/mL; MIC (COLR-Ab isolates [1]; [9]): > 4 µg/mL; MIC (COLR-Ab isolates [1]; [10]): > 4 µg/mL; Susceptibility category (COLR-Ab isolates [1]; [6]): S; Susceptibility category (COLR-Ab isolates [1]; [7]): R; Susceptibility category (COLR-Ab isolates [1]; [8]): R; Susceptibility category (COLR-Ab isolates [1]; [9]): R; Susceptibility category (COLR-Ab isolates [1]; [10]): R

For `C[C@@H](O)[C@H]1C(=O)N2C(C(=O)O)=C(SCCN=CN)C[C@H]12` [IPM, Imipenem], which MIC (COLR-Ab isolates [1]; [6]) is on record?
The MIC was ≤ 0.25 µg/mL.

What about the MIC (COLR-Ab isolates [1]; [7]) of the same compound?
Its MIC is > 8 µg/mL.

What about the MIC (COLR-Ab isolates [1]; [8]) of the same compound?
The MIC was 4 µg/mL (≈ 13.4 µM).

And the MIC (COLR-Ab isolates [1]; [9])?
The MIC was > 8 µg/mL.

What about the MIC (COLR-Ab isolates [1]; [10]) of the same compound?
The MIC was > 8 µg/mL.

What about the Susceptibility category (COLR-Ab isolates [1]; [6]) of the same compound?
The Susceptibility category was “S”.

What about the Susceptibility category (COLR-Ab isolates [1]; [7]) of the same compound?
The Susceptibility category was “R”.

And the Susceptibility category (COLR-Ab isolates [1]; [8])?
Its Susceptibility category is “I”.

And the Susceptibility category (COLR-Ab isolates [1]; [9])?
The Susceptibility category was “R”.

What about the Susceptibility category (COLR-Ab isolates [1]; [10]) of the same compound?
Its Susceptibility category is “R”.

Which MIC (COLR-Ab isolates [1]; [6]) does the source give for `C[C@@H](O)[C@H]1C(=O)N2C(C(=O)O)=C(S[C@@H]3CN[C@H](C(=O)N(C)C)C3)[C@H](C)[C@H]12` [MEM, Meropenem] here?
Its MIC is ≤ 0.125 µg/mL.

And the MIC (COLR-Ab isolates [1]; [7])?
Its MIC is > 8 µg/mL.

And the MIC (COLR-Ab isolates [1]; [8])?
Its MIC is > 8 µg/mL.

What about the MIC (COLR-Ab isolates [1]; [9]) of the same compound?
The MIC was > 8 µg/mL.

And the MIC (COLR-Ab isolates [1]; [10])?
The MIC was > 8 µg/mL.

And the Susceptibility category (COLR-Ab isolates [1]; [6])?
The Susceptibility category was “S”.

And the Susceptibility category (COLR-Ab isolates [1]; [7])?
The Susceptibility category was “R”.

What about the Susceptibility category (COLR-Ab isolates [1]; [8]) of the same compound?
Its Susceptibility category is “R”.

And the Susceptibility category (COLR-Ab isolates [1]; [9])?
Its Susceptibility category is “R”.

What about the Susceptibility category (COLR-Ab isolates [1]; [10]) of the same compound?
The Susceptibility category was “R”.

Which results are given for `CCN[C@@H]1C[C@H](N)[C@@H](O[C@H]2OC(CN)=CC[C@H]2N)[C@H](O)[C@H]1O[C@H]1OC[C@](C)(O)[C@H](NC)[C@H]1O` [NET, Netilmicin]?
MIC (COLR-Ab isolates [1]; [6]): 1 µg/mL (≈ 2.1 µM); MIC (COLR-Ab isolates [1]; [7]): > 4 µg/mL; MIC (COLR-Ab isolates [1]; [8]): > 4 µg/mL; MIC (COLR-Ab isolates [1]; [9]): > 4 µg/mL; MIC (COLR-Ab isolates [1]; [10]): > 4 µg/mL; Susceptibility category (COLR-Ab isolates [1]; [6]): S; Susceptibility category (COLR-Ab isolates [1]; [7]): R; Susceptibility category (COLR-Ab isolates [1]; [8]): R; Susceptibility category (COLR-Ab isolates [1]; [9]): R; Susceptibility category (COLR-Ab isolates [1]; [10]): R

For `O=C(O)/C=C/c1ccc(O)c(O)c1` [caffeic acid], which “Combination effect with COL in words” value (A. baumannii isolates) is on record?
Its value is “Synergistic activity”.

Which “Combination effect with COL in words” value (A. baumannii isolates) does the source give for `O=C(O)c1cc(O)c(O)c(O)c1` [gallic acid] here?
The value was “Synergistic activity”.

For `O=C(O)c1ccc(O)c(O)c1` [protocatechuic acid], which “Combination effect with COL in words” value (A. baumannii isolates) is on record?
Its value is “Synergistic activity”.

For colistin, which MIC (COLR-Ab isolates [2]; [11]) is on record?
Its MIC is > 4 µg/mL.

And the Susceptibility category (COLR-Ab isolates [2]; [11])?
The Susceptibility category was “R”.

And the MIC (COLR-Ab isolates [2]; [12])?
The MIC was > 4 µg/mL.

What about the Susceptibility category (COLR-Ab isolates [2]; [12]) of the same compound?
Its Susceptibility category is “R”.

And the MIC (COLR-Ab isolates [2]; [13])?
Its MIC is > 4 µg/mL.

What about the Susceptibility category (COLR-Ab isolates [2]; [13]) of the same compound?
Its Susceptibility category is “R”.

What about the MIC (COLR-Ab isolates [2]; [14]) of the same compound?
The MIC was > 4 µg/mL.

And the Susceptibility category (COLR-Ab isolates [2]; [14])?
The Susceptibility category was “R”.

What about the MIC (COLR-Ab isolates [2]; [15]) of the same compound?
Its MIC is > 4 µg/mL.

What about the Susceptibility category (COLR-Ab isolates [2]; [15]) of the same compound?
Its Susceptibility category is “R”.

And the “Inhibition of biofilm formation” value [3]?
The value was 19.7–75.2%.

What about the MIC [4] of the same compound?
The MIC was 4 µg/mL.

And the MIC (COLR-Ab isolates [5]; COLR-Ab1)?
The MIC was 32 µg/mL.

And the MIC (COLR-Ab isolates [5]; COLR-Ab2)?
The MIC was 64 µg/mL.

And the MIC (COLR-Ab isolates [5]; COLR-Ab3)?
Its MIC is 64 µg/mL.

What about the MIC (COLR-Ab isolates [5]; COLR-Ab4) of the same compound?
The MIC was 128 µg/mL.

And the MIC (COLR-Ab isolates [5]; COLR-Ab5)?
Its MIC is 64 µg/mL.
